For the test, the target named is T1, Amine oxidase [flavin-containing] A (Bos taurus, UniProt P21398).
T1 sequence (P21398 whole entry): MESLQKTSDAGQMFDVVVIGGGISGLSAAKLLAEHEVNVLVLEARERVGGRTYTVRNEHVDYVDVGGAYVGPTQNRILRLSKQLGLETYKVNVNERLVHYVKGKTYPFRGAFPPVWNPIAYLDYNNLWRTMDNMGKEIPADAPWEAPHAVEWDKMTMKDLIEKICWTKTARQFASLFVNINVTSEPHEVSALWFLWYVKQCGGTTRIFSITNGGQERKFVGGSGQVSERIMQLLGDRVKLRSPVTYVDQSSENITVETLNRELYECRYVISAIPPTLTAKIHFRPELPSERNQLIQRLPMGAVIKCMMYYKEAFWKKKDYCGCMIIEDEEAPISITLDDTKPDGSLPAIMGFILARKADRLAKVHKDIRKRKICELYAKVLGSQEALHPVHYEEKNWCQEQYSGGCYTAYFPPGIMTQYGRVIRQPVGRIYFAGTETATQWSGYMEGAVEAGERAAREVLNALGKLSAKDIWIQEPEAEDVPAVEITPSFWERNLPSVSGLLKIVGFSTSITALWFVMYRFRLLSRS
The test can be described thus: Inhibition of bovine brain mitochondria MAOA.
In general, Ki refers to a measure of affinity in units of concentration, obtained from inhibition or displacement. A high value points to weaker binding. Regarding `Cc1csc(N/N=C/c2ccccc2C)n1`, the Ki is 35.5 nM.

`Cc1csc(N/N=C/c2ccccc2)n1`: the Ki is 7.24 nM.

`Cc1csc(N/N=C/c2ccc(Cl)cc2Cl)n1` had a Ki of 12 nM.

In turn, `Clc1ccc(/C=N/Nc2nc(-c3ccccc3)cs2)c(Cl)c1` gave a Ki of 93.3 nM.

As for `COc1ccc(/C=N/Nc2nc(C)cs2)cc1`, the Ki was 19.1 nM.

Compound `Cc1csc(N/N=C/c2ccc(Cl)cc2)n1` gave a Ki of 38 nM.

For the compound `COc1ccc(/C=N/Nc2nc(-c3ccccc3)cs2)cc1`, affinity was put at a Ki of 50.1 nM.

Take `COc1ccc(/C=N/Nc2nc(C)cs2)cc1OC`: the affinity corresponds to a Ki of 13.2 nM.

With `C(=N\Nc1nc(-c2ccccc2)cs1)/c1ccccc1`, the Ki is 1200 nM.

Turning to `COc1ccc(/C=N/Nc2nc(-c3ccccc3)cs2)cc1OC`, the Ki was 30.2 nM.

For the compound `Clc1ccc(/C=N/Nc2nc(-c3ccccc3)cs2)cc1`, the Ki was 100 nM.

The record behind these values is ChEMBL document CHEMBL1141379, “Selective inhibitory activity against MAO and molecular modeling studies of 2-thiazolylhydrazone derivatives” (J Med Chem, 2007).
